These results are taken from BindingDB's records for doi:10.1016/j.ejmech.2021.113512 (Jagiellonian University Medical College, 2021).

The nature of the test: Inhibition of mouse GAT3 expressed in human HEK293 cell line assessed as inhibition of [3H]GABA uptake measured after 40 mins […].
Regarding `CN(CCC=C(c1ccccc1)c1ccccc1)C(CCN)C(=O)NCc1ccccc1Cl` (configuration not stated), the concentration for half-maximal inhibition (IC50) (commonly the point on the concentration scale where inhibition reaches its midpoint) is 10 µM. Under `Cc1ccsc1C(=CCCN(C)[C@H]1CCCC[C@H]1C(=O)O)c1sccc1C` stands 933 µM; under `CN(CCC=C1c2ccccc2-c2ccccc21)C(CCO)C(=O)NCc1ccccc1` (configuration not stated), 12.6 µM. For the molecule `CN(CCC=C1c2ccccc2-c2ccccc21)C(CCO)C(=O)NCc1ccccc1Cl` (configuration not stated), the concentration for half-maximal inhibition (IC50) came out at 16.2 µM. Under `CN(CCC=C1c2ccccc2-c2ccccc21)C(CCO)C(=O)NCc1ccc(Cl)cc1` (configuration not stated) stands 10.2 µM; under `CN(CCC=C1c2ccccc2-c2ccccc21)C(CCO)C(=O)NCc1ccc(F)cc1` (configuration not stated), 13.5 µM; under `Cc1ccc(CNC(=O)C(CCO)N(C)CCC=C2c3ccccc3-c3ccccc32)cc1` (configuration not stated), 20 µM. For `CN(CCC=C1c2ccccc2C=Cc2ccccc21)C(CCO)C(=O)NCc1ccccc1` (configuration not stated) the value was 13.5 µM; for `CN(CCC=C1c2ccccc2C=Cc2ccccc21)C(CCO)C(=O)NCc1ccccc1Cl` (configuration not stated), 8.91 µM; for `CN(CCC=C1c2ccccc2C=Cc2ccccc21)C(CCO)C(=O)NCc1ccc(Cl)cc1` (configuration not stated), 13.5 µM. For `CN(CCC=C1c2ccccc2C=Cc2ccccc21)C(CCO)C(=O)NCc1ccc(F)cc1` (configuration not stated) the value was 12.3 µM; for `Cc1ccc(CNC(=O)C(CCO)N(C)CCC=C2c3ccccc3C=Cc3ccccc32)cc1` (configuration not stated), 17 µM. For the molecule `CN(CCC=C1c2ccccc2CCc2ccccc21)C(CCO)C(=O)NCc1ccccc1` (configuration not stated), the IC50 stood at 11.5 µM.

For `CN(CCC=C1c2ccccc2CCc2ccccc21)C(CCO)C(=O)NCc1ccccc1Cl` (configuration not stated), the concentration for half-maximal inhibition (IC50) turned out to be 12.6 µM. Under `CN(CCC=C1c2ccccc2CCc2ccccc21)C(CCO)C(=O)NCc1ccc(F)cc1` (configuration not stated) stands 16.6 µM. `Cc1ccc(CNC(=O)C(CCO)N(C)CCC=C2c3ccccc3CCc3ccccc32)cc1` (configuration not stated): the IC50 was 12.6 µM. On to `CN(CCC=C1c2ccccc2CCc2ccccc21)C(CCN)C(=O)NCc1ccccc1Cl` (configuration not stated), for which the IC50 stood at 8.13 µM.

With `CN(CCC=C1c2ccccc2CCc2ccccc21)C(CCN)C(=O)NCc1ccc(Cl)cc1` (configuration not stated), the half-maximal inhibitory concentration (IC50) amounted to 5.13 µM. As to `CN(CCC=C1c2ccccc2CCc2ccccc21)C(CCN)C(=O)NCc1ccc(F)cc1` (configuration not stated), the IC50 was determined as 4.79 µM. As for `Cc1ccc(CNC(=O)C(CCN)N(C)CCC=C2c3ccccc3CCc3ccccc32)cc1` (configuration not stated), the IC50 was determined as 4.79 µM. For `CC(=O)NCCC(C(=O)NCc1ccc(Cl)cc1)N(C)CCC=C1c2ccccc2CCc2ccccc21` (configuration not stated) the value was 14.5 µM; for `CC(=O)NCCC(C(=O)NCc1ccc(C)cc1)N(C)CCC=C1c2ccccc2CCc2ccccc21` (configuration not stated), 5.62 µM.
